We go through one molecule from EPA's ToxValDB 9.5 (doi:10.2903/j.efsa.2015.4077).

In data set [1] the test system is Aphidius rhopalosiphi. The data set is described as follows: LR50; higher = less toxic. The conditions noted are these: not reported; mortality.
Data set [2] relates to Typhlodromus pyri. The data set is described as follows: LR50; higher = less toxic. The conditions noted are these: not reported; mortality.
Data set [3] has as its system Rattus norvegicus.
For data set [4], the system named is Pimephales promelas. The following applies: chronic/long-term; duration: 35 days; other.
Data set [5] concerns Pontoscolex corethrurus. The following applies: acute; duration: 14 days; mortality.
In data set [6] the test system is Anas platyrhynchos. The conditions noted are these: reproductive.
The subject of data set [7] is Oncorhynchus mykiss. The conditions noted are these: acute; duration: 96 hours; mortality.
For data set [8], the system named is Daphnia magna. The following applies: chronic/long-term; duration: 21 days.
For data set [9], the system named is Canidae. The conditions noted are these: chronic; duration: 1 years; oral; Dog Other; organ weight.
Data set [10] deals with Colinus virginianus. The conditions noted are these: acute, oral.
Data set [11] deals with Apis mellifera. The following applies: acute; oral; unspecified; mortality.

The structures appear in SMILES notation.

Turning to `CC(C)N1C(=O)c2ccccc2NS1(=O)=O` [Bentazone], the LR50 stood at 699 g/ha in [1] and 2800 g/ha in data set [2]. The LD50 in data set [3] (acute, M/F) is 1640 mg/kg-day; in data set [10], 565 mg/kg-day; in [11] it was above 200 µg/piece. Besides, the NOAEL in [3] (chronic, duration: 2 years, other) was found to be 9 mg/kg-day; in data set [3] (developmental, development), 100 mg/kg-day; in data set [3] (reproduction developmental), 10.3 mg/kg-day; in data set [6] it was 56 mg/kg-day; in data set [9], 13 mg/kg-day. The NOEC was 10 mg/L in data set [4] and above 101 mg/L in [8]. In addition, the LC50 was above 1000 mg/kg in [5], above 48.6 µg/mL in data set [7] and above 500 mg/kg in data set [10] (diet).
